6 compounds from patent publication US20260248799A1, “COMBINATIONS OF RETINALDEHYDE DEHYDROGENASE 1 (RALDH1) INHIBITORS AND IMMUNOSTIMULATORS AND METHODS USING SAME” (The Trustees of the University of Pennsylvania, priority 2023, published 2026) can be followed below.

Each structure is given as a SMILES string. A value given as a limit tells only on which side of the number the result lay.

One data set deals with human HCC lines. Briefly: Human HCC lines cocultured with pretreated macrophages. It counts as cell-based. Particulars: macrophages exposed to BMS493. The procedure:
(§1) FIGS. 24A-24E: Raldh1-INH blocks tumor supportive functions of monocytes and macrophages. FIG. 24A: Circulating primary human monocytes were collected from donors and cultured with MCSF (50 ng/mL) to generate macrophages. On day 3 of these cultures, DMSO or RA (100 nmol/L) was added to generate control monocyte-derived macrophages (Control-MoDM) or RA monocyte-derived macrophages (RA-MoDM), respectively. On day 7 of these cultures, macrophages were collected for each well after washing with 1×PBS, mixed with Huh7 cells at approximately 50:50 ratio, and the mix injected into the flanks of NU/J mice. Huh7 tumors cells that were not mixed with any macrophages before flank injection served as an additional control. Tumor volume was measured every 2 days (left graph). 19 days after tumor injection, mice were sacrificed and tumor weight (right graph) was measured. […] Three or more independent experiments were performed with at least three replicates per experimental group. Unpaired t test, two-tailed. […] Tumor growth was monitored daily (left graph). 13 days after tumor cell transplantation, mice were sacrificed and tumor weight measured (right graph). […] Three days later, cells were harvested, counted, and stained with PI for FCS analyses. […] Cell proliferation was measured by counting live cell numbers (y-axis). […] 72 hours later, the cells were washed, counted, and analyzed by FCS. […]

For another data set, the system named is Huh7 tumors. Briefly: Huh7 tumors in NU/J mice. It counts as in vivo, mouse. Particulars: Huh7. Here is the method: FIGS. 26A-26H: Raldh1-INH suppresses HCC growth by altering macrophage functions. FIG. 26A: Huh7 tumor-bearing NU/J mice were treated with C86 (i.p, 10 mg/kg) every day starting when tumor size was approximately 50 mm^3. Tumor volume was measured every 2 days. […] Three or more independent experiments were performed with at least three replicates per experimental group. Unpaired t test, two-tailed. FIG. 26B: AldeRed assay at endpoint on Huh7 tumor treated as described in FIG. 26A. […] Three or more independent experiments were performed with at least three replicates per experimental group. Unpaired t test, two-tailed. FIG. 26C: Huh7 tumor-bearing nude mice were treated with different dose of C86 every day. Tumor volume was measured every 2-3 days. […] Two independent experiments were performed with at least three replicates per experimental group. Unpaired t test, two-tailed. FIG. 26D: Body weight measured every 3-5 days for the experiment outlined in FIG. 26C. FIG. 26E: Parental Huh7 or RALDH1-KO Huh7 cells were implanted subcutaneously into NU/J mice and treated with C86 (i.p, 10 mg/kg) or vehicle (control) every day. […] Three or more independent experiments were performed with at least three replicates per experimental group. Unpaired t test, two-tailed. FIG. 26F: Huh7 tumor-bearing NU/J mice were treated with clodronate liposomes (CloLipo) and/or C86. […] Two independent experiments were performed with at least three replicates per experimental group. Unpaired t test, two-tailed. FIG. 26G: Murine Hepa 1-6 tumors were implanted subcutaneously into C57BL6/J WT mice or LyMCre:RosadnRAR mice. Expression of the dominant negative RAR in myeloid cells slows tumor growth. Two independent experiments were performed with at least three replicates per experimental group. Unpaired t test, two-tailed. FIG. 26H: Huh7 cells were implanted subcutaneously into NU/J mice. When tumor size reached about 50 mm^3, mice were intraperitoneally injected vehicle (control) or C86 daily with or without BMS493 treatment intratumorally every 3 days. BMS493 and C86 suppress tumor growth with the combination showing higher suppression than monotherapy. *, P<0.05; **, P<0.01; ***, P<0.001; n.s., not significant.
Cultured Huh7, Huh1, Hepa 1-6, Hep55, and FS (as indicated in figure legends) tumor cells were detached using 0.25% trypsin (Gibco, catalog #25200056), washed once with 1×PBS, and counted before implantation. 3~6×10^6 tumor cells were implanted subcutaneously (s.c.) into shaved flanks of recipient mice. Tumor dimensions were measured using a caliper starting at the day indicated in the accompanying figure legend and every two to three days thereafter; volume was calculated by using formula Length*Width^2/2. Tumor volumes of 2,000 mm^3, tumor length of 2 cm or tumor ulceration were used as endpoints for survival analyses.
Compound-86, 97 and 99 powder was dissolved in 20% HPβCD saline (2-Hydroxypropyl)-[…]). Drug was administered i.p. or p.o. starting when tumor volume reached 50-150 mm^3 and repeated every day.

Data set [1] concerns macrophages from primary human monocytes. Briefly: Numbers of live monocyte-derived macrophages in vitro. It counts as cell-based. To be noted: C86 treated TCM or BMS493; three days. The procedure:
as §1

The subject of a further data set is SNU398 human HCC cells. Put plainly: AldeRed (Aldefluor) assay in SNU398 cells. It counts as cell-based. Here is the method:
The AldeRed assay (EMD Millipore) was performed according to manufacturer's instructions to identify cells with ALDH activity. In brief, single-cell suspensions of Huh7, Huh1, SNU449, SNU398, HEP3B, PLC, Hepa 1-6, Hep55, and AL458A cultured cells or single-cell suspension generated from enzymatic digestion of tumors generated from transplantation of these cells in mice (as indicated in figure legends) were incubated with a fluorescent and non-toxic ALDH substrate (AldeRed 588-A); the fluorescent product accumulates in cells proportional to their ALDH activity. The amount of fluorescence produced is measured by flow cytometry. The ALDH inhibitor diethylaminobenzaldehyde (DEAB, provided with the AldeRed assay kit) was used as a negative control for background fluorescence assessment.
(§2) The Aldefluor assay has been used to identify and isolate cells with high ALDH activities. This assay is based on the principle that ALDH can convert the ALDH-substrate, Bodipy-aminoacetaldehyde (BAAA) into Bodipy-aminoacetate (BAA) which is retained inside the cells. BAAA is uncharged and can diffuse freely into intact viable cells, however BAA cannot cross the membrane due to its net negative charge, which makes remain in the cells and the assay buffer prevents efflux of the BAA from the cells. Therefore, the amount of BAA fluorescence in cells is proportional to ALDH activity and can be measured using a flow cytometer. A specific inhibitor of ALDH, diethylaminobenzaldehyde (DEAB), is used for background fluorescence control.

The next data set has as its system MiaPaCa2 cells. Briefly: AldeFlour assay in MiaPaCa2 cells. To be noted: Homo sapiens, MIA PaCa-2, read-out: MiaPaCa cells IC50. It counts as cell-based.
Source text: as §2
(§3) Compounds ALDH inhibitory effects of C-9125, C-9163, and C-9175 were evaluated in a number of cell lines, including MiaPaCa2 and OV90 cell lines, utilizing the AldeFlour assay described elsewhere herein (Table 4).

The target of a further data set is T1, hALDHIA1 (Homo sapiens, UniProt P00352).
T1 sequence (P00352 1-501): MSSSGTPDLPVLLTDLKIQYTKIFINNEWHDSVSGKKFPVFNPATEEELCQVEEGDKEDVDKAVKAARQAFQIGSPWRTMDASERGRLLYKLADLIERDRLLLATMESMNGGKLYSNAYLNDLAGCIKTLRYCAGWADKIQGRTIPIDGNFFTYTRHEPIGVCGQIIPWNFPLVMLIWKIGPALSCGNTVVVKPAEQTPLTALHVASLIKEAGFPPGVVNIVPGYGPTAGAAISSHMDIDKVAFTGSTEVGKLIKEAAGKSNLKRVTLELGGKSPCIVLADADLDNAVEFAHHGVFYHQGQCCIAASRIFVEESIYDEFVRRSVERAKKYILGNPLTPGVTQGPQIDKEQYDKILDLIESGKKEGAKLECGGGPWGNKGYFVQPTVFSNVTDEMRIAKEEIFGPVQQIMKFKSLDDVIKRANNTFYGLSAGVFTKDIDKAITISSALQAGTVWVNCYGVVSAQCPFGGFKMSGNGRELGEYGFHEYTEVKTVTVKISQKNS
Briefly: hALDH1A1 inhibition (Table 4). It counts as biochemical. Here is the method: as §3

For data set [2], the system named is SNU398 (human HCC cell line). Put plainly: LC-MS for ATRA in SNU398 cells. Particulars: C86 100 nmol/L, WIN18446 1,000 nmol/L, 24 hours.
Data set [3] relates to Hepa1-6 (mouse HCC cell line). Put plainly: LC-MS for ATRA in Hepa1-6 cells. To be noted: 1,000 nmol/L, 24 hours.

For `CC1(C)CC=C(C#Cc2ccccc2)c2cc(/C=C/c3ccc(C(=O)O)cc3)ccc21` [BMS 493, (E)-4-(2-(5,5-dimethyl-8-(phenylethynyl)-5,6-dihydronaphthalen-2-yl)vinyl)benzoic acid, reference compound], in the data set with human HCC lines, the “increase of tumor cell numbers by RA pre-treated macrophages” value is “this effect was reversed”. In addition, in the data set with Huh7 tumors (intraperitoneal administration, compared to a control (FIGS. 12B-12C)), the “tumor mass and volume” value was “significant reduction in tumor mass and volume”. The “RA and tumor-CM induced increase in macrophage numbers” value in data set [1] is “reversed”.
Regarding `N#CC1(c2ccccc2)CCN(c2c(C(=O)N[C@H]3CC[C@H](O)CC3)cnc3ccc(F)cc23)CC1` [Compound C-97, 4-(4-cyano-4-phenylpiperidin-1-yl)-6-fluoro-N-((1r,4r)-4-hydroxycyclohexyl)quinoline-3-carboxamide], the “ALDH activity compared to the DMSO control” value in the data set with SNU398 human HCC cells (SNU398, 1 nM) is given as “partial inhibition”. Besides, the “concentration giving essentially complete inhibition of ALDH” value in the data set with SNU398 human HCC cells (SNU398, Aldefluor assay) is ≥ 10 nM. For the same compound, the “tumor mass and volume” value in the data set with Huh7 tumors (C-86 versus C-97 (FIGS. 17A-17B)) was “significant reduction in tumor mass and volume”. Also, the “tumor suppressive activity relative to C-86” value in the data set with Huh7 tumors (FIGS. 17A-17B) was “enhanced tumor suppressive activity as compared to C-86”.
The term IC50 denotes the concentration needed to halve the response being measured. Turning to `N#CC1(c2ccc(-c3c(C(=O)Nc4cnn(CCO)c4)cnc4ccc(F)cc34)cc2)CC1` [Compound C-9163, 4-(4-(1-cyanocyclopropyl)phenyl)-6-fluoro-N-(1-(2-hydroxyethyl)-1H-pyrazol-4-yl)quinoline-3-carboxamide], the IC50 with MiaPaCa2 cells came out at 93 nM; at hALDHIA1, 4 nM.
For `N#CC1(c2ccccc2)CCN(c2c(C(=O)Nc3cnn(CCO)c3)cnc3ccc(F)cc23)CC1` [Compound C-9175, 4-(4-cyano-4-phenylpiperidin-1-yl)-6-fluoro-N-(1-(2-hydroxyethyl)-1H-pyrazol-4-yl)quinoline-3-carboxamide], in that order: 12 nM and 6 nM.
As to `O=C(NCCCCCCCCNC(=O)C(Cl)Cl)C(Cl)Cl` [WIN18446], the “ATRA by LC-MS (RALDH1 inhibition)” value in data set [2] is “inhibits both murine and human RALDH1”; in data set [3], “inhibits both murine and human RALDH1”.
`N#CC1(c2ccc(-c3c(C(=O)N[C@H]4CC[C@H](O)CC4)cnc4ccc(F)cc34)cc2)CC1` [Compound C-9125, 4-(4-(1-cyanocyclopropyl)phenyl)-6-fluoro-N-((1r,4r)-4-hydroxycyclohexyl)quinoline-3-carboxamide]: the IC50 with MiaPaCa2 cells turned out to be 130 nM; against hALDHIA1 it was 7 nM.
